Experimental data as given in patent US20250099596A1, “TETRAHYDRONAPHTHALENE COMPOUND, AND PREPARATION METHOD THEREFOR AND USE THEREOF IN MEDICINE” (Jiangsu Hengrui Pharmaceuticals Co., Ltd., priority 2021, published 2025).
≈ marks a conversion by molar mass, not a printed value. Like-named read-outs stand apart in the source and are kept apart here.

Assays:
MCF7/ERα Y537S cells = assay: Inhibitory activity on proliferation of ERα mutant-expressing MCF7 cells; format: cell-based; conditions: Homo sapiens, 144 h, 6 days incubation, CellTiter-Glo, read-out: IC50 (nM), inhibition of proliferation of ERα mutant-expressing MCF7 cells
Procedure, shortened: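 MCF7 cells stably expressing ERα Y537S (lentiviral) were seeded in 2% FBS medium and exposed for 6 days at 37 °C to 9 concentrations (4-fold dilution from 1000 nM, 0.5% DMSO control). Viability read by CellTiter-Glo luminescence; IC50 calculated from concentration–signal data.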

[1] = Pharmacokinetic evaluation, SD rat test; format: in vivo; conditions: SD rats; for AUC(0-t): read-out: Area under curve AUC0-t; for half-life: read-out: Half-life T1/2 (converted); for Cmax: read-out: Plasma concentration Cmax
Description: With SD rats as test animals, the plasma concentration of the compound of Example 26-1 was determined by LC/MS/MS at different time points after intragastric (i.g.)/intravenous (i.v.) administration to SD rats. The pharmacokinetic behavior of the compound of the present disclosure in SD rats was studied and its pharmacokinetic profile was evaluated.
Eight SD rats, of which half were male and half female, were evenly divided into 2 groups. The rats were provided by Zhejiang Vital River Laboratory Animal Technology Co., Ltd. The 2 groups were fasted overnight and then dosed intragastrically and intravenously, respectively.
An appropriate amount of the compound of Example 26-1 was weighed out and mixed with 5% EtOH+95% (a 15% solution of polyethylene glycol 15-hydroxystearate prepared in a 5% aqueous solution of glucose) to make a 0.2 mg/mL colorless clear solution (for the intragastric administration group) and a 0.2 mg/mL colorless clear solution (for the intravenous administration group).
The intragastric administration group: the dose was 2.0 mg/kg, and the volume was 10.0 mL/kg.
The intravenous administration group: the dose was 1.0 mg/kg, and the volume was 5.0 mL/kg.
The intragastric administration group: Blood (0.2 mL) was collected from the orbit into EDTA-K2 anticoagulation tubes before administration and 0.25 h, 0.5 h, 1.0 h, 2.0 h, 4.0 h, 6.0 h, 8.0 h, 11.0 h and 24.0 h after administration and centrifuged at 10,000 rpm for 1 min (4° C.). The plasma was separated within 1 h and stored at −20° C. before analysis. The process from blood collection to centrifugation was performed in an ice bath. Two hours after administration, feeding was resumed.
The intravenous administration group: Blood was collected before administration and 5 min, 15 min, 0.5 h, 1.0 h, 2.0 h, 4.0 h, 8.0 h, 11.0 h and 24 h after administration and processed as in the intragastric administration group.
The plasma concentration of the test compound was determined after administration of different concentrations of the test compound to SD rats: plasma samples (25 μL) were collected from SD rats at various time points after administration, and 50 μL of camptothecin (100 ng/mL) was added to each of the samples; proteins were precipitated with 200 μL of acetonitrile; the mixtures were vortexed for 5 min and centrifuged at 4000 rpm for 10 min. 1 μL of supernatant was collected for LC/MS/MS analysis.

[2] = Solubility in FassIF and FessIF solution; format: physicochemical; conditions: thermodynamic from solid
Description: Solution (A): 4.441 g of NaH2PO4·2H2O, 0.348 g of NaOH granules and 6.186 g of NaCl were added to 900 mL of ultrapure water and well mixed, and the solution was adjusted to pH 6.5±0.05 with 1 M NaOH, brought to volume (1000 mL) with water, and stored at 4° C. for future use.
FaSSIF solution (B): 0.161 g of sodium taurocholate (NaTC) and 59 mg of lecithin were dissolved in 20 mL of solution (A). The resulting solution was vigorously stirred overnight to form a clear micellar solution, and solution (A) was added to make a volume of 100 mL. The resulting solution was stored at 4° C. for future use (not more than 2 weeks).
Solution (A): 20.2 g of NaOH granules, 43.25 g of acetic acid and 59.37 g of sodium chloride were precisely weighed out and dissolved in a proper amount of ultrapure water. The solution was brought to volume (5 L), adjusted to pH 5.0 with 1 M NaOH or 1 M HCl, and stored at 4° C. for future use.
FeSSIF solution (B): 0.80652 g of sodium taurocholate (NaTC) and 295.5 mg of lecithin were dissolved in 25 mL of solution (A). […]
3.1. […] 10 μL of the stock solution (concentration 10 mM, dissolved in DMSO) was precisely measured out and well mixed with 990 μL of an organic solvent mixture (usually DMSO:acetonitrile:ethanol=1:1:1) in a 2 mL sample flask to obtain a 100 μM clear sample solution as a reference solution. […]

[3] = both sexes, rat, plasma, iv, i.v., 1.0 mg/kg
[4] = both sexes, rat, plasma, po, i.g., 2.0 mg/kg

## CC(C)C[C@H]1CCc2cc(O)ccc2[C@H]1c1ccc(N2CCC(CN3CCN(c4ccc5c(c4)CN([C@H]4CCC(=O)NC4=O)C5=O)CC3)CC2)cc1 [Example 26-1, (S)-3-(5-(4-((1-(4-((1R,2R)-6-Hydroxy-2-isobutyl-1,2,3,4-tetrahydronaphthalen-1-yl)phenyl)piperidin-4-yl)methyl)piperazin-1-yl)-1-oxoisoindolin-2-yl)piperidine-2,6-dione]
MCF7/ERα Y537S cells
  IC50: 1.67 nM
[1]; i.v., 1.0 mg/kg
  Clearance CL/F: 6.4 mL/min/kg
[1]; [3]
  AUC(0-t): 2640 ng·h/mL
  half-life: 4.8 h
  Cmax: 4040 ng/mL
[1]; both sexes, rat, plasma, po, i.g., 2.0 mg/kg, read-out: Apparent distribution volume Vz/F
  Vd/F: 38.5 L/kg
[1]; [4]
  AUC(0-t): 302 ng·h/mL
  half-life: 4.4 h
  Cmax: 32.9 ng/mL
[1]; both sexes, rat, plasma, po, i.g., 2.0 mg/kg, read-out: Clearance CL/F
  CL/F: 102 mL/min/kg
[2]; FassIF solution pH 6.5, 37° C., read-out: Solubility in FassIF solution
  solubility at 24 h: 97 µM (≈ 68.3 µg/mL)
[2]; FessIF solution pH 5.0, 37° C., read-out: Solubility in FessIF solution
  solubility at 24 h: 553 µM (≈ 389 µg/mL)
